Where two headings read alike, the source gives them in different places.
Experiments:
[1] = system: K562 human chronic myeloid leukaemia cells; assay: In vitro cytotoxicity, K562 cells, MTT assay; format: cell-based
Description: K562 human chronic myeloid leukaemia cells were maintained in RPM1 1640 medium supplemented with 10% fetal calf serum and 2 mM glutamine at 37° C. in a humidified atmosphere containing 5% CO2 and were incubated with a specified dose of drug for 1 hour or 96 hours at 37° C. in the dark. The incubation was terminated by centrifugation (5 min, 300 g) and the cells were washed once with drug-free medium. Following the appropriate drug treatment, the cells were transferred to 96-well microtiter plates (10^4 cells per well, 8 wells per sample). Plates were then kept in the dark at 37° C. in a humidified atmosphere containing 5% CO2. The assay is based on the ability of viable cells to reduce a yellow soluble tetrazolium salt, 3-(4,5-dimethylthiazol-2-yl)-2,5-diphenyl-2H-tetrazolium bromide (MTT, Aldrich-Sigma), to an insoluble purple formazan precipitate. Following incubation of the plates for 4 days (to allow control cells to increase in number by approximately 10 fold), 20 μL of MTT solution (5 mg/mL in phosphate-buffered saline) was added to each well and the plates further incubated for 5 hours. The plates were then centrifuged for 5 minutes at 300 g and the bulk of the medium pipetted from the cell pellet leaving 10-20 μL per well. DMSO (200 μL) was added to each well and the samples agitated to ensure complete mixing. The optical density was then read at a wavelength of 550 nm on a Titertek Multiscan ELISA plate reader, and a dose-response curve was constructed. For each curve, an IC50 value was read as the dose required to reduce the final optical density to 50% of the control value.

[2] = system: approximately 60 human tumour cell lines; assay: NCI 60 cell screen, SRB assay; format: cell-based; conditions: 48 hour continuous exposure
Description: The National Cancer Institute (NCI), Bethesda, Md., USA has available an in vitro cytotoxicity screen which consists of approximately 60 human tumour cell lines against which compounds are tested at a minimum of five concentrations each differing 10-fold. A 48 hour continuous exposure protocol is used, where cell viability or growth is estimated with an SRB protein assay.
The test compounds were evaluated against approximately 60 human tumour cell lines. The NCI screening procedures were described in detail by Monks and co-workers (Monks, A et al., Journal of the National Cancer Institute, 1991, 83, 757). Briefly, cell suspensions were diluted according to the particular cell type and the expected target cell density (5000-40,000 cells per well based on cell growth characteristics), and added by pipette (100 μL) into 96-well microtitre plates. The cells were allowed a preincubation period of 24 hours at 37° C. for stabilisation. Dilutions at twice the intended test concentration were added at time zero in 100 μL aliquots to the wells. The test compounds were evaluated at five 10-fold dilutions (10^−4, 10^−5, 10^−6, 10^−7 and 10^−[…]). The test compounds were incubated for 48 hours in 5% CO2 atmosphere and 100% humidity. The cells were then assayed using the sulphorhodamine B assay. A plate reader was used to read the optical densities and a microcomputer processed the readings into GI50 values (in Moles), which is the dosage required to limit cell growth to 50%.

[3] = system: linear pBR322 DNA; assay: DNA cross-linking, electrophoretic assay (XL50); format: biochemical; conditions: concentration giving 50% cross-linked plasmid DNA; 2 hours, 37° C., pH 7.2
Description: The extent of DNA cross-linking induced by each PBD dimer was determined using the electrophoretic assay method of Hartley, et al. (Hartley, J. A., Berardini, M. D., and Souhami, R. L. (1991) Anal. Biochem. 193, 131-134) based on the principle that, following complete denaturation of linear pBR322 DNA (˜4,300 bp) to the single-stranded (SS) form, an interstrand cross-link results in renaturation to double-stranded (DS) in a neutral gel.
Closed-circular DNA was linearized with HindIII, then dephosphorylated and finally 5′-singly end-labelled using [γ^32P]-ATP and polynucleotide kinase. Reactions containing 30-40 ng of DNA and the test compound were carried out in aqueous TEOA (25 mM triethanolamine, 1 mM EDTA, pH 7.2) buffer at 37° C. in a final volume of 50 μl for 2 hours. Reactions were terminated by addition of an equal volume of stop solution (0.6 M NaOAc, 20 mM EDTA, 100 μg/ml tRNA) followed by precipitation with ethanol. Following centrifugation, the supernatant was discarded and the pellet dried by lyophilization. Samples were re-suspended in 10 μl of strand separation buffer (30% DMSO, 1 mM EDTA, 0.04% bromophenol blue and 0.04% xylene cylanol) and denatured by heating to 90° C. for 2.5 min, followed by immersion in an ice/water bath. Control non-denatured samples were re-suspended in 10 μl of non-denaturing buffer solution (0.6% sucrose, 0.04% bromophenol blue in aqueous TAE buffer [40 mM Tris, 20 mM acetic acid, 2 mM EDTA, pH 8.1]) and loaded directly onto the gel for comparison.
Electrophoresis was carried out for 14-16 h at 40 V using a 0.8% submerged agarose gel (20×25×0.5 cm) in TAE buffer. Gels were dried under vacuum for 2 hour at 80° C. onto one layer each of Whatman 3MM and DE8I filter papers using a BioRad 583 gel dryer. Autoradiographs were obtained after exposure of Hyperfilm-MP film (Amersham plc, U.K.) to the dried gel for either 4 hour with a screen (or over night, without a screen, to obtain a sharper image). Film bands were quantitated using a BioRad GS-670 imaging laser densitometer. Percentage cross-linking was calculated by measuring the total DNA in each lane (summed density for the double-stranded [DS] and single-stranded [SS] bands) relative to the amount of cross-linked DNA (density of DS band alone). A dose-response curve was derived by plotting drug concentration against the determined percentage level of cross-linked DNA which was then analysed to determine the concentration of test compound that results in 50% cross-linked plasmid DNA (XL50).

[4] = Homo sapiens, 1 hr exposure, read-out: IC50 1 hr exposure
[5] = Homo sapiens, 96 hr exposure, sub-table of 16e-j, read-out: IC50 96 hr exposure
[6] = Homo sapiens, sub-table of 29a-c

Row | SMILES | IC50 [1, 4] [nM] | GI50 ([2]; Homo sapiens) [nM] | EC50 [3] [nM] | also measured
1 | COc1ccc2c(c1)N=C[C@H]1C(OCCCCOC3CCN4C(=O)c5ccc(OC)cc5N=C[C@@H]34)CCN1C2=O (stereo partly drawn) [Compound 9b, 1,1′-[(Butane-1,4-diyl)dioxy]bis[(11aS)-8-methoxy-1,2,3,11a-tetrahydro-5H-pyrrolo[2,1-c][1,4]benzodiazepine-5-one]] | > 30000 | 28100 | – | –
2 | COc1ccc2c(c1)C(=O)N1CCC(OCCCCCCCCOC3CCN4C(=O)c5cc(OC)ccc5N=C[C@@H]34)[C@@H]1C=N2 (stereo partly drawn) [Compound 16f, 1,1′-[(Octane-1,8-diyl)dioxy]bis[(11aS)-7-methoxy-1,2,3,11a-tetrahydro-5H-pyrrolo[2,1-c][1,4]benzodiazepine-5-one]] | – | 19 | 1400 | IC50 [1, 5]: 4.5 nM
3 | COc1ccc2c(c1)N=C[C@H]1C(OCCCCCCCCCCCCOC3CCN4C(=O)c5ccc(OC)cc5N=C[C@@H]34)CCN1C2=O (stereo partly drawn) [Compound 9j, 1,1′-[(Dodecane-1,12-diyl)dioxy]bis[(11aS)-8-methoxy-1,2,3,11a-tetrahydro-5H-pyrrolo[2,1-c][1,4]benzodiazepine-5-one]] | 9120 | 210 | > 100000 | –
4 | COc1ccc2c(c1)C(=O)N1CCC(OCCCCCCCCCCCCOC3CCN4C(=O)c5cc(OC)ccc5N=C[C@@H]34)[C@@H]1C=N2 (stereo partly drawn) [Compound 16j, 1,1′-[(Dodecane-1,12-diyl)dioxy]bis[(11aS)-7-methoxy-1,2,3,11a-tetrahydro-5H-pyrrolo[2,1-c][1,4]benzodiazepine-5-one]] | – | 150 | – | IC50 [1, 5]: 645 nM
5 | COc1ccc2c(c1)C(=O)N1CCC(OCCCCCOC3CCN4C(=O)c5cc(OC)ccc5N=C[C@@H]34)[C@@H]1C=N2 (stereo partly drawn) [Compound 16c, 1,1′-[(Pentane-1,5-diyl)dioxy]bis[(11aS)-7-methoxy-1,2,3,11a-tetrahydro-5H-pyrrolo[2,1-c][1,4]benzodiazepine-5-one]] | 500 | 15 | 70 | –
6 | C=C1CN2C(=O)c3cc(OC)ccc3N=C[C@H]2C1OCCCCCCCCOC1C(=C)CN2C(=O)c3cc(OC)ccc3N=C[C@@H]12 (stereo partly drawn) [Compound 29a, 1,1′-[(Octane-1,8-diyl)dioxy]bis[(11aS)-7-methoxy-2-methylene-1,2,3,11a-tetrahydro-5H-pyrrolo[2,1-c][1,4]benzodiazepine-5-one]] | – | – | – | GI50 [2, 6]: 13.8 nM
7 | COc1cc2c(cc1OCCCCCOc1cc3c(cc1OC)N=C[C@@H]1CCCN1C3=O)C(=O)N1CCC[C@H]1C=N2 [Compound 9c, 1,11-[(Pentane-1,5-diyl)dioxy]bis[(11aS)-8-methoxy-1,2,3,11a-tetrahydro-5H-pyrrolo[2,1-c][1,4]benzodiazepine-5-one]] | – | – | – | IC50 ([1]; 1 hr exposure, read-out: IC50 1 hr exposure): > 30000 nM; GI50 [2]: 10200 nM
8 | COc1ccc2c(c1)N=C[C@H]1C(OCCCCCCOC3CCN4C(=O)c5ccc(OC)cc5N=C[C@@H]34)CCN1C2=O (stereo partly drawn) [Compound 9d, 1,1′-[(Hexane-1,6-diyl)dioxy]bis[(11aS)-8-methoxy-1,2,3,11a-tetrahydro-5H-pyrrolo[2,1-c][1,4]benzodiazepine-5-one]] | > 30000 | 4000 | – | –
9 | C=C1CN2C(=O)c3cc(OC)ccc3N=C[C@H]2C1OCCCCCCCCCOC1C(=C)CN2C(=O)c3cc(OC)ccc3N=C[C@@H]12 (stereo partly drawn) [Compound 29b, 1,1′-[(Nonane-1,9-diyl)dioxy]bis[(11aS)-7-methoxy-2-methylene-1,2,3,11a-tetrahydro-5H-pyrrolo[2,1-c][1,4]benzodiazepine-5-one]] | – | – | 1500 | IC50 ([1]; Homo sapiens, 96 hr exposure, sub-table of 29a-c, read-out: IC50 96 hr exposure): 33.8 nM; GI50 [2, 6]: 20.9 nM
10 | COc1ccc2c(c1)N=C[C@H]1C(OCCCCCCCCCCCOC3CCN4C(=O)c5ccc(OC)cc5N=C[C@@H]34)CCN1C2=O (stereo partly drawn) [Compound 9i, 1,1′-[(Undecane-1,11-diyl)dioxy]bis[(11aS)-8-methoxy-1,2,3,11a-tetrahydro-5H-pyrrolo[2,1-c][1,4]benzodiazepine-5-one]] | 9000 | 570 | 190 | –
11 | COc1ccc2c(c1)C(=O)N1CCC(OCCCCCCOC3CCN4C(=O)c5cc(OC)ccc5N=C[C@@H]34)[C@@H]1C=N2 (stereo partly drawn) [Compound 16d, 1,1′-[(Hexane-1,6-diyl)dioxy]bis[(11aS)-7-methoxy-1,2,3,11a-tetrahydro-5H-pyrrolo[2,1-c][1,4]benzodiazepine-5-one]] | 1000 | 310 | 750 | –
12 | COc1ccc2c(c1)C(=O)N1CCC(OCCCCCCCCCCCOC3CCN4C(=O)c5cc(OC)ccc5N=C[C@@H]34)[C@@H]1C=N2 (stereo partly drawn) [Compound 16i, 1,1′-[(Undecane-1,11-diyl)dioxy]bis[(11aS)-7-methoxy-1,2,3,11a-tetrahydro-5H-pyrrolo[2,1-c][1,4]benzodiazepine-5-one]] | – | 220 | – | IC50 [1, 5]: 689 nM
13 | COc1ccc2c(c1)C(=O)N1CCC(OCCCCOC3CCN4C(=O)c5cc(OC)ccc5N=C[C@@H]34)[C@@H]1C=N2 (stereo partly drawn) [Compound 16b, 1,1′-[(Butane-1,4-diyl)dioxy]bis[(11aS)-7-methoxy-1,2,3,11a-tetrahydro-5H-pyrrolo[2,1-c][1,4]benzodiazepine-5-one]] | 2500 | 2510 | 1000 | –
14 | COc1ccc2c(c1)C(=O)N1CCC(OCCCCCCCCCOC3CCN4C(=O)c5cc(OC)ccc5N=C[C@@H]34)[C@@H]1C=N2 (stereo partly drawn) [Compound 16g, 1,1′-[(Nonane-1,9-diyl)dioxy]bis[(11aS)-7-methoxy-1,2,3,11a-tetrahydro-5H-pyrrolo[2,1-c][1,4]benzodiazepine-5-one]] | – | 19 | 1500 | IC50 [1, 5]: 26 nM
15 | COc1ccc2c(c1)N=C[C@H]1C(OCCCCCCCOC3CCN4C(=O)c5ccc(OC)cc5N=C[C@@H]34)CCN1C2=O (stereo partly drawn) [Compound 9e, 1,1′-[(Heptane-1,7-diyl)dioxy]bis[(11aS)-8-methoxy-1,2,3,11a-tetrahydro-5H-pyrrolo[2,1-c][1,4]benzodiazepine-5-one]] | > 30000 | 2690 | 20000 | –
16 | COc1ccc2c(c1)N=C[C@H]1C(OCCCOC3CCN4C(=O)c5ccc(OC)cc5N=C[C@@H]34)CCN1C2=O (stereo partly drawn) [Compound 9a, 1,1′-[(Propane-1,3-diyl)dioxy]bis[(11aS)-8-methoxy-1,2,3,11a-tetrahydro-5H-pyrrolo[2,1-c][1,4]benzodiazepine-5-one]] | > 30000 | 8910 | > 100000 | –

Reference: patent US7557099B2, “Pyrrolobenzodiazepines as key intermediates in the synthesis of dimeric cytotoxic pyrrolobenzodiazepines” (Spirogen Limited, priority 2004, dated 2009)
